Test results taken from patent US9902736B2, “1-oxo/acylation-14-acylated oridonin derivative, preparation method therefor and application thereof” (HANGZHOU BENSHENG PHARMACEUTICAL CO., LTD., priority 2012, dated 2018).
Values after ≈ are worked out from the molar mass of the structure shown. Values belong to the molecule of their own block, whether it stands above or below them.

Assays:
MGC-803 = experiment: Solid tumor cell growth inhibition, MTT, 72 h; assay type: cell-based, human; settings: for IC50 / IC90: Homo sapiens, MGC-803, 72 h, MTT
Experimental: (§1) 6000 well-growing human solid tumor cells were obtained and inoculated into wells of a 96-well cell culture plate. The culture medium was DMEM High Glucose cell culture medium containing 10% fetal bovine serum. The plate was placed in a carbon dioxide cell incubator (5% CO2) at 37° C. and incubated for 24 hours. After added with 1-oxo/acylated-14-acylated oridonin derivatives of different concentration and mixed uniformly, the plate was placed in a carbon dioxide cell incubator (5% CO2) at 37° C. and incubated for 72 hours. Then the viable cell concentration was determined by MTT method.

CNE = experiment: Solid tumor cell growth inhibition, MTT, 72 h; assay type: cell-based, human; settings: Homo sapiens, CNE; 72 h, MTT
Experimental: as §1

Hep-2 = experiment: Solid tumor cell growth inhibition, MTT, 72 h; assay type: cell-based, human; settings: for IC50 / IC90: Homo sapiens, HEp-2, 72 h, MTT
Experimental: as §1

Hela = experiment: Solid tumor cell growth inhibition, MTT, 72 h; assay type: cell-based, human; settings: Homo sapiens, HeLa; 72 h, MTT
Experimental: as §1

RPMI 8226 = experiment: Multiple myeloma cell growth inhibition, MTT, 72 h; assay type: cell-based; settings: Homo sapiens
Experimental: Multiple myeloma cell lines: RPMI8226 (multiple myeloma), purchased from Fuxiang Bio-tech Co. Ltd., Shanghai, China.
(§2) 6000 well-growing cells were obtained and inoculated into wells of a 96-well cell culture plate. […] On the next day, the 1-oxo/acylated-14-acylated oridonin derivatives of different concentrations were added and mixed uniformly. The plate was placed in a carbon dioxide cell incubator (5% CO2) at 37° C. and incubated for 72 hours. Then the viable cell concentration was determined by MTT method.

RKO = experiment: Solid tumor cell growth inhibition, MTT, 72 h; assay type: cell-based; settings: Homo sapiens
Experimental: as §1

SK-OV-3 = experiment: Solid tumor cell growth inhibition, MTT, 72 h; assay type: cell-based; settings: Homo sapiens, SK-OV-3, 72 h, MTT; for IC50: read-out: IC50 SK-OV-3; for IC90: read-out: IC90 SK-OV-3
Experimental: as §1

Hep G2 = experiment: Solid tumor cell growth inhibition, MTT, 72 h; assay type: cell-based; settings: Homo sapiens, HepG2
Experimental: as §1

U87-MG = experiment: Solid tumor cell growth inhibition, MTT, 72 h; assay type: cell-based; settings: Homo sapiens, U-87 MG
Experimental: as §1

CaEs-17 = experiment: Solid tumor cell growth inhibition, MTT, 72 h; assay type: cell-based; settings: Homo sapiens, CaEs17
Experimental: as §1

A549 = experiment: Solid tumor cell growth inhibition, MTT, 72 h; assay type: cell-based; settings: Homo sapiens
Experimental: as §1

PC-3 = experiment: Solid tumor cell growth inhibition, MTT, 72 h; assay type: cell-based; settings: Homo sapiens
Experimental: as §1

MG-63 = experiment: Solid tumor cell growth inhibition, MTT, 72 h; assay type: cell-based; settings: Homo sapiens
Experimental: as §1

PANC-1 = experiment: Solid tumor cell growth inhibition, MTT, 72 h; assay type: cell-based; settings: Homo sapiens
Experimental: as §1

Becap-37 = experiment: Solid tumor cell growth inhibition, MTT, 72 h; assay type: cell-based; settings: Homo sapiens
Experimental: as §1

NB4 = experiment: Leukemia cell growth inhibition, MTT, 72 h; assay type: cell-based, human; settings: Homo sapiens, NB-4; 72 h, MTT
Description: (§3) Leukemia cell lines: leukemia cell lines: K562/adr (drug-resistant, chronic myeloid leukemia, CML), NB4 (acute promyelocytic leukemia, AML), Kasumi-1 (acute myeloid leukemia M2 type, AML-M2), Jurkat (acute lymphoblastic leukemia, ALL), all of which were donated by Cancer Research Institute of Zhejiang University, China; and H9 (acute lymphoblastic leukemia, ALL), which was purchased from China Center for Type Culture Collection.
as §2, with “6000 well-growing leukemia cells were” for “6000 well-growing cells were”, “C. and was incubated for” for “C. and incubated for”

H9 = experiment: Leukemia cell growth inhibition, MTT, 72 h; assay type: cell-based, human; settings: Homo sapiens, H9; 72 h, MTT
Description: as §3
as §2, with “6000 well-growing leukemia cells were” for “6000 well-growing cells were”, “C. and was incubated for” for “C. and incubated for”

Jurkat = experiment: Leukemia cell growth inhibition, MTT, 72 h; assay type: cell-based, human; settings: Homo sapiens, Jurkat; 72 h, MTT
Description: as §3
as §2, with “6000 well-growing leukemia cells were” for “6000 well-growing cells were”, “C. and was incubated for” for “C. and incubated for”

K562/ADR = experiment: Leukemia cell growth inhibition, MTT, 72 h; assay type: cell-based; settings: Homo sapiens
Description: as §3
as §2, with “6000 well-growing leukemia cells were” for “6000 well-growing cells were”, “C. and was incubated for” for “C. and incubated for”

Kasumi-1 = experiment: Leukemia cell growth inhibition, MTT, 72 h; assay type: cell-based; settings: Homo sapiens
Description: as §3
as §2, with “6000 well-growing leukemia cells were” for “6000 well-growing cells were”, “C. and was incubated for” for “C. and incubated for”

IC50 (MGC-803): 1.39 µg/mL (≈ 2.59 µM)
IC90 (MGC-803): 12.1 µg/mL (≈ 22.5 µM)
IC50 (CNE): 1.32 µg/mL (≈ 2.46 µM)
IC90 (CNE): 5.04 µg/mL (≈ 9.39 µM)
IC50 (Hep-2): 1.68 µg/mL (≈ 3.13 µM)
IC90 (Hep-2): 7.46 µg/mL (≈ 13.9 µM)
IC50 (Hela): 1.54 µg/mL (≈ 2.87 µM)
IC90 (Hela): 4.45 µg/mL (≈ 8.29 µM)
IC50 (RPMI 8226): 0.49 µg/mL (≈ 0.913 µM)
IC90 (RPMI 8226): 1.75 µg/mL (≈ 3.26 µM)
IC50 (RKO): 0.38 µg/mL (≈ 0.708 µM)
IC90 (RKO): 0.75 µg/mL (≈ 1.4 µM)
IC50 (SK-OV-3): 1.66 µg/mL (≈ 3.09 µM)
IC90 (SK-OV-3): 4.52 µg/mL (≈ 8.42 µM)
IC50 (Hep G2): 1.42 µg/mL (≈ 2.65 µM)
IC90 (Hep G2): 7.47 µg/mL (≈ 13.9 µM)
IC50 (U87-MG): 0.6 µg/mL (≈ 1.12 µM)
IC90 (U87-MG): 1.86 µg/mL (≈ 3.47 µM)
IC50 (CaEs-17): 0.94 µg/mL (≈ 1.75 µM)
IC90 (CaEs-17): 6.26 µg/mL (≈ 11.7 µM)
IC50 (A549): 2.87 µg/mL (≈ 5.35 µM)
IC90 (A549): 9.95 µg/mL (≈ 18.5 µM)
IC50 (PC-3): 1.66 µg/mL (≈ 3.09 µM)
IC90 (PC-3): 4.52 µg/mL (≈ 8.42 µM)
IC50 (MG-63): 0.47 µg/mL (≈ 0.876 µM)
IC90 (MG-63): 1 µg/mL (≈ 1.86 µM)
IC50 (PANC-1): 1.82 µg/mL (≈ 3.39 µM)
IC90 (PANC-1): 9.91 µg/mL (≈ 18.5 µM)
IC50 (Becap-37): 1.15 µg/mL (≈ 2.14 µM)
IC90 (Becap-37): 3.31 µg/mL (≈ 6.17 µM)
IC50 (NB4): 0.1 µg/mL (≈ 0.186 µM)
IC90 (NB4): 0.49 µg/mL (≈ 0.913 µM)
IC50 (H9): 0.19 µg/mL (≈ 0.354 µM)
IC90 (H9): 0.49 µg/mL (≈ 0.913 µM)
IC50 (Jurkat): 0.65 µg/mL (≈ 1.21 µM)
IC90 (Jurkat): 2.68 µg/mL (≈ 4.99 µM)
IC50 (K562/ADR): 0.7 µg/mL (≈ 1.3 µM)
IC90 (K562/ADR): 2.17 µg/mL (≈ 4.04 µM)
IC50 (Kasumi-1): 0.72 µg/mL (≈ 1.34 µM)
IC90 (Kasumi-1): 1.72 µg/mL (≈ 3.21 µM)
SMILES: C=C1C(=O)[C@]23[C@H](OC(=O)/C=C/c4ccccc4)[C@H]1CC[C@H]2[C@@]12CO[C@@]3(O)[C@@H](O)[C@@H]1C(C)(C)CC[C@@H]2OC(C)=O [BS-OR-094]

IC50 (MGC-803): 0.59 µg/mL (≈ 1.09 µM)
IC90 (MGC-803): 5.7 µg/mL (≈ 10.5 µM)
IC50 (CNE): 1.18 µg/mL (≈ 2.18 µM)
IC90 (CNE): 4.52 µg/mL (≈ 8.36 µM)
IC50 (Hep-2): 0.96 µg/mL (≈ 1.78 µM)
IC90 (Hep-2): 6.65 µg/mL (≈ 12.3 µM)
IC50 (Hela): 1.28 µg/mL (≈ 2.37 µM)
IC90 (Hela): 3.51 µg/mL (≈ 6.49 µM)
IC50 (RPMI 8226): 0.37 µg/mL (≈ 0.684 µM)
IC90 (RPMI 8226): 1.8 µg/mL (≈ 3.33 µM)
IC50 (RKO): 0.41 µg/mL (≈ 0.758 µM)
IC90 (RKO): 0.93 µg/mL (≈ 1.72 µM)
IC50 (SK-OV-3): 1.75 µg/mL (≈ 3.24 µM)
IC90 (SK-OV-3): 4.71 µg/mL (≈ 8.71 µM)
IC50 (Hep G2): 1.4 µg/mL (≈ 2.59 µM)
IC90 (Hep G2): 6.28 µg/mL (≈ 11.6 µM)
IC50 (U87-MG): 0.67 µg/mL (≈ 1.24 µM)
IC90 (U87-MG): 1.98 µg/mL (≈ 3.66 µM)
IC50 (CaEs-17): 0.99 µg/mL (≈ 1.83 µM)
IC90 (CaEs-17): 4.83 µg/mL (≈ 8.93 µM)
IC50 (A549): 2.38 µg/mL (≈ 4.4 µM)
IC90 (A549): 7.54 µg/mL (≈ 13.9 µM)
IC50 (PC-3): 1.75 µg/mL (≈ 3.24 µM)
IC90 (PC-3): 4.71 µg/mL (≈ 8.71 µM)
IC50 (MG-63): 0.49 µg/mL (≈ 0.906 µM)
IC90 (MG-63): 1.46 µg/mL (≈ 2.7 µM)
IC50 (PANC-1): 1.69 µg/mL (≈ 3.13 µM)
IC90 (PANC-1): 5.65 µg/mL (≈ 10.5 µM)
IC50 (Becap-37): 1.26 µg/mL (≈ 2.33 µM)
IC90 (Becap-37): 2.48 µg/mL (≈ 4.59 µM)
IC50 (NB4): 0.13 µg/mL (≈ 0.24 µM)
IC90 (NB4): 0.73 µg/mL (≈ 1.35 µM)
IC50 (H9): 0.14 µg/mL (≈ 0.259 µM)
IC90 (H9): 0.46 µg/mL (≈ 0.851 µM)
IC50 (Jurkat): 0.55 µg/mL (≈ 1.02 µM)
IC90 (Jurkat): 2.31 µg/mL (≈ 4.27 µM)
IC50 (K562/ADR): 0.45 µg/mL (≈ 0.832 µM)
IC90 (K562/ADR): 1.72 µg/mL (≈ 3.18 µM)
IC50 (Kasumi-1): 0.52 µg/mL (≈ 0.962 µM)
IC90 (Kasumi-1): 1.22 µg/mL (≈ 2.26 µM)
SMILES: C=C1C(=O)[C@]23[C@H](OC(=O)c4ccc(OC)cc4)[C@H]1CC[C@H]2[C@@]12CO[C@@]3(O)[C@@H](O)[C@@H]1C(C)(C)CCC2OC(C)=O (stereo partly shown) [BS-OR-091]
anti-MGC-803 activity increased (MGC-803; in comparison with oridonin): ~10 fold
anti-Hep-2 activity increased (Hep-2; in comparison with oridonin): ~5 fold
